Results reported in patent US8609654B1, “Compounds for enzyme inhibition” (Onyx Therapeutics, Inc., priority 2006, dated 2013).

Tests used:
[1] = test system: rheumatoid arthritis induced by immunization with bovine type II collagen in CFA; assay: Mouse model of RA by immunization with bovine type II collagen; type: in vivo, female DBA/1 mice
Method: The effect administration of Compound 14 on disease progress was also assessed in an alternative mouse model for RA, in which disease develops 21-30 days after immunization with bovine type II collagen (Kagari et al., J Immunol 169:1459-1466, 2002). […] Again, disease progression was measured using a total clinical score of paw condition per mouse.

[2] = test system: rheumatoid arthritis induced by anti-type II collagen antibodies and LPS; assay: Arthrogenic antibody mouse model of rheumatoid arthritis (anti-collagen antibodies and LPS); type: in vivo, female Balb/c mice
Method: The effect of Compound 14 on disease progression was assessed in 2 mouse models of rheumatoid arthritis (FIG. 2). […] Rhematoid arthritis was induced on Day 0 in female Balb/c mice by IV administration of anti-type II collagen antibodies followed 3 days later by LPS. […] Per mouse, each paw was measured for disease using a scale of 0-4 and a total clinical score was assigned for each animal (max score=16). Administration of 6 mg/kg of Compound 14 reduced disease severity by ˜50% while the 20 mg/kg dose level inhibited the disease by greater than 75%.

[3] = biological target: T1, 26S proteasome CT-L activity in lysate of HT29 (constitutive) vs Sultan/Thp1 (immunoproteasome) cells (Homo sapiens, UniProt P28062+P28074); assay: CT-L EC50 with 26S proteasome in cell lysate (Lysate ratio); type: biochemical; details: HT29 lysate to Sultan/Thp1 lysate, >1 = prefers immunoproteasome
T1 construct: using 26S proteasome in the context of a cell lysate; endogenous in cells; host or cells: HT29 lysate (constitutive); Sultan or THP1 lysate (immunoproteasome)
T1 sequence (P28074 60-263): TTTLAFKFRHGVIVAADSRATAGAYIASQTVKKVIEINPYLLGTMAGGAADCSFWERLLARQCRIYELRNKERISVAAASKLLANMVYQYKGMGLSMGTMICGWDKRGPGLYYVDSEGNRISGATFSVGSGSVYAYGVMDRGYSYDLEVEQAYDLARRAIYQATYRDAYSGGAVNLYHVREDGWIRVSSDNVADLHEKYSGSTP
T1 sequence (P28062 73-276): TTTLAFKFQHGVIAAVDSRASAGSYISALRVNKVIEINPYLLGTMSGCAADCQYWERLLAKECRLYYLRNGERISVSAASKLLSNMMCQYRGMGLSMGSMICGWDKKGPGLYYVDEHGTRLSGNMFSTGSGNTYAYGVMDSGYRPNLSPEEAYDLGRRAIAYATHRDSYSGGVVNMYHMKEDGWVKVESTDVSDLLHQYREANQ
Method: Alternatively, the CT-L EC50 of a compound can be determined using 26S proteasome in the context of a cell lysate. Compound is added to lysate generated from cells that either predominantly express constitutive proteasome (e.g., HT29) or immunoproteasome (e.g., THP1). Again, the inhibitory preference is then based on the EC50 ratio (Lysate ratio).

[4] = biological target: T2, 20S proteasome subunit β5 vs immunoproteasome subunit LMP7 in RPMI-8226 cells (Homo sapiens, UniProt P28062+P28074); assay: ELISA-based active site assay in RPMI-8226 cells (ELISA ratio); type: cell-based; details: EC50 ratio with β5 antibody to LMP7 antibody, RPMI-8226 cells; >1 = prefers immunoproteasome
T2 construct: Cells expressing approximately equivalent amounts of immuno- and constitutive proteasome (e.g., RPMI-8226) are treated with test compound; endogenous in cells; host or cells: RPMI-8226 multiple myeloma cells
T2 sequence (P28074 60-263): T1 sequence (P28074 60-263)
T2 sequence (P28062 73-276): T1 sequence (P28062 73-276)
Method: Lastly, a more cell-based approach can be utilized. Cells expressing approximately equivalent amounts of immuno- and constitutive proteasome (e.g., RPMI-8226) are treated with test compound, followed by the method for determining the activity of a proteasome inhibitor as described in application Ser. No. 11/254,541. The ratio of the EC50 generated in the ELISA-based assay using β5 antibody and LMP7 antibodies (ELISA ratio) provides the basis for determining the inhibitory preference of the test compound. […] In all three assays, a ratio of less than one denotes the molecule inhibits the CT-L activity of the constitutive proteasome better than that of the immunoproteasome. Ratios greater than one signifies the molecule inhibits chymotrypsin-like activity of the immunoproteasome better than that of the constitutive proteasome.
A suitable ELISA assay may be found in U.S. patent application Ser. No. 11/254,541, incorporated herein in its entirety. Briefly, RPMI-8226 cells were treated with 0.1 nM to 1 μM of proteasome Inhibitor B. The samples were then washed with phosphate-buffered saline (PBS) and lysed in hypotonic buffer (20 mM Tris pH 8, 5 mM EDTA) (Tris-HCl and EDTA are available from Teknova, Inc., Hollister, Calif.). Cellular debris was removed by centrifugation at 14,000 rpm in a microfuge (4° C.) for 2 min. The supernatant was transferred to a fresh tube, snap frozen in liquid nitrogen and stored at −80° C. After thawing on ice, the samples (30 μl for assays run in triplicate) were treated with 500 nM of Inhibitor A for 1 hr at room temperature. Following treatment with Inhibitor A, the lysate was denatured by addition of seven volumes of 1% SDS (210 μl) (available from Bio-Rad, Hercules, Calif.) and heating at 99° C. with vigorous shaking for 5 min. The sample was allowed to cool and two volumes (60 μl) of 10% Triton X-100 (available from Bio-Rad, Hercules, Calif.) was added.
Streptavidin sepharose beads (6.5 μl/well) (available from Amersham Biosciences, Piscataway, N.J.), were washed three times with 1 ml PBS (available from Mediatech, Inc., Herndon, Va.) in a microcentrifuge tube. The beads were resuspended in ELISA wash/block buffer (PBS+0.1% Tween 20+1% bovine serum albumin; 20 μl/well) and transferred to the wells of a 96 well filter plate (BSA is available from Sigma, St. Louis, Mo.; Tween is available from Calbiochem, San Diego, Calif.). Denatured whole blood or PBMC lysates that were treated with Inhibitor 3 were added to the filter plate wells containing the streptavidin sepharose beads (each sample assayed in triplicate) and incubated for 1 hr at room temperature with shaking (MultiScreen-DV Opaque Plates with low protein binding durapore membrane; available from Millipore, Billerica, Mass.). The unbound material was removed by gentle filtration and the beads were washed six times with ELISA wash/block buffer (200 μl each).
Primary antibody to human 20S proteasome subunit (35 (rabbit polyclonal antibody; available from Biomol, Plymouth Meeting, Pa.) or human 20S immunoproteasome subunit LMP7 (rabbit polyclonal antibody; available from Affinity BioReagents, Golden, Colo.) was diluted 1:1000 in ELISA wash/block buffer, added to the beads (100 μl/well), and incubated for 1 hr at room temperature on an orbital shaker. The beads were washed six times with ELISA wash/block buffer with gentle filtration. Secondary antibody treatment (1:5000) and washing are as described for primary antibody (goat anti-rabbit antibody-HRP conjugate; available from Biosource, Camarillo, Calif.). The beads were then resuspended in 100 μl chemiluminescent detection reagent (Super Signal Pico Chemiluminescent Substrate™; available from Pierce, Rockford, Ill.) and luminescence was read on a Tecan plate reader. […]

[5] = test system: chymotryptic-like activity of isolated 20S constitutive proteasome vs immunoproteasome; assay: Enzyme kinetic assay with isolated 20S proteasome preps, EC50 ratio of CT-L activity (20S ratio); type: biochemical; details: constitutive proteasome to immunoproteasome, >1 = prefers immunoproteasome
From the text: Enzyme kinetic assays such as those disclosed in U.S. application Ser. No. 09/569,748, Example 2 and Stein et al., Biochem. (1996), 35, 3899-3908 use isolated 20S proteasome preps with greater than 90% constitutive proteasome subunits or immunoproteasome subunits. The inhibitory preference of the molecule is then based on the EC50 ratio of the chymotryptic-like activity of the constitutive proteasome to that of the immunoproteasome (20S ratio).

Row | Lysate ratio (HT29:Sultan/Thp1) [3] | Elisa ratio (beta5:LMP7) [4] | 20 S ratio (const:immuno) [5] | Structure (SMILES) | effect on disease progression ([1]; 6 or 20 mg/kg beginning after first signs of disease, total clinical score) | dose dependence of reduction of disease severity ([1]; 6 vs 20 mg/kg) | reduction of disease severity ([2]; 6 mg/kg IV 3 times/week for 2 weeks from Day 4) | inhibition of the disease ([2]; 20 mg/kg IV 3 times/week for 2 weeks from Day 4) | effect on disease progression ([2]; IV 3 times/week for 2 weeks from Day 4, total clinical score (max 16))
1 | – | – | – | COc1ccc(C[C@H](NC(=O)[C@H](C)NC(=O)CN2CCOCC2)C(=O)N[C@@H](Cc2ccccc2)C(=O)[C@@]2(C)CO2)cc1 [Compound 14] | inhibited disease progression as compared to vehicle control | enhanced reduction of disease severity | ~50% | greater than 75% | inhibited disease progression in a dose dependent manner
2 | >3.0 | >5.0 | >5.0 | COc1ccc(C[C@H](NC(=O)C(C)NC(=O)OCc2ccccc2)C(=O)N[C@@H](Cc2ccccc2)C(=O)C2(C)CO2)cc1 (some centres unmarked) [drawing 66] | – | – | – | – | –
3 | >3.0 | >5.0 | >5.0 | COc1ccc(C[C@H](NC(=O)C(C)NC(=O)OCc2ccccc2)C(=O)N[C@@H](Cc2ccc(O)cc2)C(=O)C2(C)CO2)cc1 (some centres unmarked) [drawing 67] | – | – | – | – | –
4 | >3.0 | >5.0 | >5.0 | CC[C@@H](NC(=O)OCc1ccccc1)C(=O)N[C@@H](Cc1c[nH]c2ccccc12)C(=O)N[C@@H](Cc1ccccc1)C(=O)C1(C)CO1 (some centres unmarked) [drawing 84] | – | – | – | – | –
5 | >2.0 | >5.0 | >2.0 | COc1ccc(C[C@H](NC(=O)C(C)NC(=O)OCc2ccccc2)C(=O)N[C@@H](Cc2ccccc2)C(=O)C2(C)CO2)cc1 (some centres unmarked) [drawing 86] | – | – | – | – | –
